Assay [1] addresses T1, Gonadotropin-releasing hormone receptor (Rattus norvegicus, UniProt P30969).
T1 sequence (P30969 whole entry): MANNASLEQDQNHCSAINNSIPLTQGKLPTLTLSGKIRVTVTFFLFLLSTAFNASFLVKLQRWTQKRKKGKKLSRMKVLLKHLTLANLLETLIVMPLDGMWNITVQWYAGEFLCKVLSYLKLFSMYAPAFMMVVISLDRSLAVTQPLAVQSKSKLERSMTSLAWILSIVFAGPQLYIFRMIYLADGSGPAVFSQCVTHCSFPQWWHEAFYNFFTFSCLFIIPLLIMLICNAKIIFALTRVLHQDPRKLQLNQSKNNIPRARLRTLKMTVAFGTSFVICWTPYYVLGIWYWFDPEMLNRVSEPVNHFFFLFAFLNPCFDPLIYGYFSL
The experiment in a line: Dissociation constant was determined in vitro using rat pituitary membranes and [125I]-leuprolide as radioligand, at concentration 3.16*10e-6 M.

Assay [2] addresses T1, Gonadotropin-releasing hormone receptor. The assay can be described thus: Dissociation constant was determined in vitro using rat pituitary membranes, at concentration 1.0*10e-5 M.

Usually Kd stands for a measure of binding affinity in units of concentration. A higher Kd goes with lower affinity. Consider `CC(=O)N1CCN(c2ccc(OC[C@@H]3CO[C@@](Cn4ccnc4)(c4ccc(Cl)cc4Cl)O3)cc2)CC1` [Nizoral], for which the figures for the dissociation constant Kd in assay [1] and in assay [2] were 0.221 µM and 0.375 µM, respectively.

The values above are taken from BindingDB's records for doi:10.1021/jm00129a003 (Abbott Laboratories, 1989).
